# Reference: US20220370440A1 (Lead Discovery Center GmbH, priority 2018, published 2022)
# Columns and labels:
# HER2 INS YVMA = target: T1, HER2 INS YVMA (Homo sapiens, UniProt P04626, INS775YVMA); test: Lance Kinase Activity Assay, HER2 INS YVMA (Her2 Exon 20 INSYVMA Lance); assay type: biochemical; settings: biochemical Lance assay
# T1 construct: purchased DPF
# In short: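 IC50 was fitted to sigmoidal curves of TR-FRET signal (665 and 615 nm emission after 340 nm excitation) from an Eu anti-phospho antibody binding the phosphorylated ULight peptide. The ATP-started reaction ran 1 h at RT and was then quenched with 10 mM EDTA plus antibody for a further 1 h. Compounds were tested as 8-point, 3-fold dilutions.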
# [1] = target: Her2 Exon 20 INSYVMA Ba/F3 (Homo sapiens, UniProt P04626, DUP772-775, cells depend on it); test: Her2 Exon 20 INSYVMA Ba/F3 CellTiter-Glo; assay type: cell-based; settings: CellTiter-Glo, 72 h, read-out: Her2 Exon 20 INSYVMA Ba/F3 CTG IC50
# In short: (§1)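 Using a 72 h viability readout, compound-treated Ba/F3 cells (pre-incubated 24 h after seeding) were lysed with CellTiter-Glo reagent and luminescence recorded. Potency was expressed as IC50 from a fitted dose–response curve.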
# [2] = target: EGFR Exon 20 INSNPH Ba/F3 (Homo sapiens, UniProt P00533, DUP771-773, cells depend on it); test: EGFR Exon 20 INSNPH Ba/F3 CellTiter-Glo; assay type: cell-based; settings: CellTiter-Glo, 72 h, read-out: EGFR Exon 20 INSNPH Ba/F3 CTG IC50
# In short: as §1
# EGFR T790ML858R = EGFR T790ML858R (Homo sapiens, UniProt P00533, L858R/T790M); test: EGFR T790ML858R Lance assay; assay type: biochemical
# Protocol: (§2) Inhibition is indicated as […] [nM] (“−”=not measured). Compounds having an activity designated as “A” provided an IC50≤100 nM; compounds having an activity designated as “B” provided an 100 nM<IC50≤500 nM; compounds having an activity designated as “C” provided an 500 nM<IC50≤1000 nM; compounds having an activity designated as “D” provided an 1000 nM<IC50≤100000 nM; and compounds having an activity designated as “E” provided an IC50>10000 nM.
# EGFR wt = EGFR wt (Homo sapiens, UniProt P00533); test: EGFR wt Lance assay; assay type: biochemical
# Protocol: as §2
# H1975 = H1975 CellTiter-Glo; assay type: cell-based; settings: Homo sapiens, NCI-H1975; 72 h compound incubation; read-out: H1975 CTG IC50
# In short: (§3)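 Seed cells; incubate 24 h at 37° C., 5% CO2; add compound in DMSO over a concentration range; incubate 72 h; add CellTiter-Glo reagent, stabilise 10 min at room temperature; read luminescence; fit IC50.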
# H1781 = H1781 CellTiter-Glo; assay type: cell-based; settings: NCI-H1781; 72 h compound incubation; read-out: H1781 CTG IC50
# Protocol: 2. Measurement of Cellular Activity
# The CellTiter-Glo Luminescent Cell Viability Assay (Promega) is a homogeneous method of determining the number of viable cells in culture. It is based on quantification of ATP, indicating the presence of metabolically active cells. Cells are seeded on day 1 at cell numbers that assure assay linearity and optimal signal intensity. After incubation for 24 h in humidified chambers at 37° C. and 5% CO2, compounds in DMSO are added at different concentrations. Cells are further incubated for 72 h at 37° C. and 5% CO2. Cells treated with the compound vehicle DMSO are used as positive controls and cells treated with 10 μM Staurosporine serve as negative controls. At day 5 the CellTiter Glo Reagent is prepared according to the instructions of the kit (Promega Inc.): Reagent is mixed 1:1 with cell culture medium. Thereon, mixture and assay plates are equilibrated at room temperature for 20 min. Equal volumes of the reagent-medium-mixture is added to the volume of culture medium present in each well. The plates are mixed at ˜200 rpm for 2 minutes on an orbital shaker. The microplates are then incubated at room temperature for 10 minutes for stabilization of the luminescent signal. Following incubation the luminescence is recorded on a Victor microplate reader (Perkin Elmer) using a 200 ms integration time. The data is then analyzed with Excel using the XLFIT Plugin (dose response Fit 205) for IC50-determination. As quality control the Z′-factor is calculated from 16 positive and negative control values. Only assay results showing a Z′-factor ≥0.5 are used for further analysis.
# as §2
# A431 = A431 CellTiter-Glo; assay type: cell-based; settings: Homo sapiens, A-431; 72 h compound incubation; read-out: A431 CTG IC50
# In short: as §3
# [3] = Metabolic stability in mouse liver microsomes without cofactor NADPH; assay type: in vitro ADME; settings: 3 μM test compound, mouse liver microsomes, without NADPH, 50 min, 37° C., LC-MS/MS
# In short: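 Cofactor-free incubation: no NADPH added to mouse liver microsomes, with compound at 3 μM and 37° C. Remaining parent was quantified by LC-MS/MS at time points up to 50 minutes to track depletion.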
# Her2 Exon 20 INSYVMA Ba/F3, sequence (P04626 with tags, fused parts or gaps DUP772-775): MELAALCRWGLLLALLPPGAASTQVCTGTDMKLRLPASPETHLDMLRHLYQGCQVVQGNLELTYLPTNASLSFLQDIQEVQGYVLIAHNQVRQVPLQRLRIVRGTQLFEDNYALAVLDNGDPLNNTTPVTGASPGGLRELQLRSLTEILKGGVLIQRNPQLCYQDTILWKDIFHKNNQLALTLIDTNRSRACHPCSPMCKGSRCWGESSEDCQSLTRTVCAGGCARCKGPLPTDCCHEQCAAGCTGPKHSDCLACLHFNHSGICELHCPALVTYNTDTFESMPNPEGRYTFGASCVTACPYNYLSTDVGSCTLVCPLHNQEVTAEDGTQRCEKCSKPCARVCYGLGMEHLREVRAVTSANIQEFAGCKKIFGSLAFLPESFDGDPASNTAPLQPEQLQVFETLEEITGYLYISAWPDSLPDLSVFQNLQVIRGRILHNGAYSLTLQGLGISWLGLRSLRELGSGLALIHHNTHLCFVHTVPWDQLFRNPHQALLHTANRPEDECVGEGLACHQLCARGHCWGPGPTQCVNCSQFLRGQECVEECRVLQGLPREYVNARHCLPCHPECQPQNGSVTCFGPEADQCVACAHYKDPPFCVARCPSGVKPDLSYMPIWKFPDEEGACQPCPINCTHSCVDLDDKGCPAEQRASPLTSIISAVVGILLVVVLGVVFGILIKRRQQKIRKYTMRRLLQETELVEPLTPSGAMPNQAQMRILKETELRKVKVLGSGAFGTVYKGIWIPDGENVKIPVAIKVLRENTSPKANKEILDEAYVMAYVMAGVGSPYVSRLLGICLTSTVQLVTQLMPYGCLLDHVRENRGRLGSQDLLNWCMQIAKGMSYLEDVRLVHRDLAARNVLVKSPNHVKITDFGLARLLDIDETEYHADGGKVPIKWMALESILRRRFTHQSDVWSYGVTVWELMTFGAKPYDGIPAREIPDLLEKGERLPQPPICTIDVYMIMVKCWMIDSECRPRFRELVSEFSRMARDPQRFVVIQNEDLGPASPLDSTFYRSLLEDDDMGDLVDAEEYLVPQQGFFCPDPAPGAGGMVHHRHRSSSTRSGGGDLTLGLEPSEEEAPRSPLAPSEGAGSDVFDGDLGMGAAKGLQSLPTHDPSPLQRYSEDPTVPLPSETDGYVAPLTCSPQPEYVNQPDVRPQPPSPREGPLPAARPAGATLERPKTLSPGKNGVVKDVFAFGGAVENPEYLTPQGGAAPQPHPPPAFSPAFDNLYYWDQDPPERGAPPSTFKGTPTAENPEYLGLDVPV
# EGFR T790ML858R, sequence (P00533 25-1210 T790M/L858R): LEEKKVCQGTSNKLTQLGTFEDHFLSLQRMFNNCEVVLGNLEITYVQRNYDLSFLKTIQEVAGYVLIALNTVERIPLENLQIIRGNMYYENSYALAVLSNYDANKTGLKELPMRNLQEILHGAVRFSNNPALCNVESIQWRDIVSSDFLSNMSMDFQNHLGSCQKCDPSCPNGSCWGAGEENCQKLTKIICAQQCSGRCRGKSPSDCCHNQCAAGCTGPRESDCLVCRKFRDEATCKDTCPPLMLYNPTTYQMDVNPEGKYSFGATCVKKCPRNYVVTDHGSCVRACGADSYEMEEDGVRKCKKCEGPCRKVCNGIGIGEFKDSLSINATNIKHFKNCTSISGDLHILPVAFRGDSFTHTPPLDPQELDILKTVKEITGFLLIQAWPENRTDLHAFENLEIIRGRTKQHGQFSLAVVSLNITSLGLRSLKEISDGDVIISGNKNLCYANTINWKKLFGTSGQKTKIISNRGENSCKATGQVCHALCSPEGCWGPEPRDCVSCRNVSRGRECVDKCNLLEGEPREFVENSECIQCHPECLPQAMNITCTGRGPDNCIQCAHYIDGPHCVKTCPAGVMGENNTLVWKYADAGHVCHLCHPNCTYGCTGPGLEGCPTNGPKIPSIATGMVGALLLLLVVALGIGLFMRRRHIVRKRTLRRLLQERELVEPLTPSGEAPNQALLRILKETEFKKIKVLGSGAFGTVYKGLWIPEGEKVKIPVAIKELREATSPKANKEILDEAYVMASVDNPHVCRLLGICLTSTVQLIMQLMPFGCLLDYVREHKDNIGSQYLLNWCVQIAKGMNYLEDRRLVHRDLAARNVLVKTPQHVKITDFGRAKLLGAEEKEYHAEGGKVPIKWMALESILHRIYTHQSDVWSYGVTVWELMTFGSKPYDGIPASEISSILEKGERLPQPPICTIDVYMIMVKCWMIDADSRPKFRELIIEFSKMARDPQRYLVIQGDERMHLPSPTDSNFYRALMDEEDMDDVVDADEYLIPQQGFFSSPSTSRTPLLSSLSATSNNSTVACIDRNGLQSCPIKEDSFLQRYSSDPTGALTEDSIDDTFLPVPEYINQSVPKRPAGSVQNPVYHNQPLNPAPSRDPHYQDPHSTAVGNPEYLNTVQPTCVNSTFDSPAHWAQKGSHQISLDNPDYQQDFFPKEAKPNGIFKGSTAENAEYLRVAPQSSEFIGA
# EGFR wt, sequence (P00533 25-1210): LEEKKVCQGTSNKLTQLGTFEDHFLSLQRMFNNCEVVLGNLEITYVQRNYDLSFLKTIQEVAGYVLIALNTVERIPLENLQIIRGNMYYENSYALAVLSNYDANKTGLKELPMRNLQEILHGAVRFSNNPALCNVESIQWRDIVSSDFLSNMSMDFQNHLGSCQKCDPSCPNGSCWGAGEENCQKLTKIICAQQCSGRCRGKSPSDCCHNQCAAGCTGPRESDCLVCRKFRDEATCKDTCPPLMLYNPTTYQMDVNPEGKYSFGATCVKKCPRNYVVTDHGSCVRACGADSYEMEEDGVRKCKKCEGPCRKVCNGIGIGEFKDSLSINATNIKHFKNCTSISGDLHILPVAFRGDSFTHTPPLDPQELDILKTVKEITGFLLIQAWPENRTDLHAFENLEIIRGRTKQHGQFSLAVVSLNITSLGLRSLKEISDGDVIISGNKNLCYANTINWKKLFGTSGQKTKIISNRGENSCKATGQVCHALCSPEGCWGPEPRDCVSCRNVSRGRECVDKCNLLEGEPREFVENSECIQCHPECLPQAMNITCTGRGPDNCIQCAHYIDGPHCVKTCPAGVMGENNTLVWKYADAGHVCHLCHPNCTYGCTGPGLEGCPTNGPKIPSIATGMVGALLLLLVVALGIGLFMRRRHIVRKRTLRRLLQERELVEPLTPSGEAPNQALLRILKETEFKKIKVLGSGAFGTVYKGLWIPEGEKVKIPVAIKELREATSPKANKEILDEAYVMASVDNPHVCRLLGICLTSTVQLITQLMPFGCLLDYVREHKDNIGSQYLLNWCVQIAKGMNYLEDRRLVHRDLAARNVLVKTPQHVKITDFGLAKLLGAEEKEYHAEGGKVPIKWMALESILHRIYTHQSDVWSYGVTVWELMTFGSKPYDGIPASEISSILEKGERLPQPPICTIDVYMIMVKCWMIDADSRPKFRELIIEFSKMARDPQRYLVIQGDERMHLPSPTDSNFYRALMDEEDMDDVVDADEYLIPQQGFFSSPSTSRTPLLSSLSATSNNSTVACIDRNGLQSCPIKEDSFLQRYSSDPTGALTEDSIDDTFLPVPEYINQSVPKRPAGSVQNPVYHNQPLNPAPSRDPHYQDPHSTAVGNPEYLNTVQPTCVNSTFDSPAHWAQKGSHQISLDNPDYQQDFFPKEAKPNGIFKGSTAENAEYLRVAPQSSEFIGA
# EGFR Exon 20 INSNPH Ba/F3, sequence (P00533 with tags, fused parts or gaps DUP771-773): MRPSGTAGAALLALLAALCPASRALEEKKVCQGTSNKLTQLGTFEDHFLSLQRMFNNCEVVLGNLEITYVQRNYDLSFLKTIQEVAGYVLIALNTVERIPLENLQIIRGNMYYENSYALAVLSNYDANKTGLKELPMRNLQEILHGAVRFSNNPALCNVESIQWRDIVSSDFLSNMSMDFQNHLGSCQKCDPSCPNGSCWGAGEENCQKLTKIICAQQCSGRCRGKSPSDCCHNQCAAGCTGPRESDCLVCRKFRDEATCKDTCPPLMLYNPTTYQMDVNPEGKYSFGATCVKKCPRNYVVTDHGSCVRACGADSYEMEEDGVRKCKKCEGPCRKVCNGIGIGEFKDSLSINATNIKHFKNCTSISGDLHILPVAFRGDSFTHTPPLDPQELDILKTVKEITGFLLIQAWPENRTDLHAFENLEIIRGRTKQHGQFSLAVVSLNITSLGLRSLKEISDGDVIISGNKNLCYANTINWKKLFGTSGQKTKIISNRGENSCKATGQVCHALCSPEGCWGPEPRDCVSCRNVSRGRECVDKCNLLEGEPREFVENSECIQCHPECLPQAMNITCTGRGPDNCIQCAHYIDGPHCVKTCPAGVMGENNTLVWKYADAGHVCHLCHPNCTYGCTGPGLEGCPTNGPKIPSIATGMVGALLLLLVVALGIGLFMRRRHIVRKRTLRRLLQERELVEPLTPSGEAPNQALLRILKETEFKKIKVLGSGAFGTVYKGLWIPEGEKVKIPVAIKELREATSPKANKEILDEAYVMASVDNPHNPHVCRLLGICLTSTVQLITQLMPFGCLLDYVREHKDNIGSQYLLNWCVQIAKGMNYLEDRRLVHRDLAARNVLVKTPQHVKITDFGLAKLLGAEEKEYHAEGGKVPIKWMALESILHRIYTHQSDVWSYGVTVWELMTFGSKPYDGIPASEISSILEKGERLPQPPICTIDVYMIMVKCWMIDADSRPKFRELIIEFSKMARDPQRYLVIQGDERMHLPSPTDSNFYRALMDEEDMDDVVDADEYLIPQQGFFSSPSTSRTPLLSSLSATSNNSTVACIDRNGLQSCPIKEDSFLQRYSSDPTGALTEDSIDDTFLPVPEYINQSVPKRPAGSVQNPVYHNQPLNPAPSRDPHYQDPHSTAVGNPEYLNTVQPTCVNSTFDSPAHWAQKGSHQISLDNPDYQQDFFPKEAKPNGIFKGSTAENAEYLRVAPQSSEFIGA
IC50 (HER2 INS YVMA),GI50 [1],GI50 [2],IC50 (EGFR T790ML858R),IC50 (EGFR wt),IC50 (H1975),IC50 (H1781),IC50 (A431),Stability in presence of mouse liver microsomes without cofactor NADPH [% remaining after 50 min] [3],SMILES
≤ 0.1 µM,0.1 to 0.5 µM,0.1 to 0.5 µM,≤ 0.1 µM,≤ 0.1 µM,≤ 0.1 µM,0.1 to 0.5 µM,0.1 to 0.5 µM,>99 % remaining after 50 min,"C=CC(=O)N1CCc2ccc(-c3c(-c4ccnc(N5CCN(C)CC5)c4)[nH]c4nccc(Cl)c34)cc21 [Example 59, 1-(6-(4-chloro-2-(2-(4-methylpiperazin-1-yl)pyridin-4-yl)-1H-pyrrolo[2,3-b]pyridin-3-yl)indolin-1-yl)prop-2-en-1-one]"
≤ 0.1 µM,0.1 to 0.5 µM,0.1 to 0.5 µM,≤ 0.1 µM,≤ 0.1 µM,≤ 0.1 µM,0.5 to 1 µM,0.1 to 0.5 µM,>99 % remaining after 50 min,"C=CC(=O)Nc1cc(-c2c(-c3ccc(C(=O)N4CCOCC4)cc3)[nH]c3nccc(Cl)c23)ccc1C [Example 11, N-(5-(4-chloro-2-(4-(morpholine-4-carbonyl)phenyl)-1H-pyrrolo[2,3-b]pyridin-3-yl)-2-methylphenyl)acrylamide]"
≤ 0.1 µM,1 to 10 µM,1 to 10 µM,≤ 0.1 µM,≤ 0.1 µM,0.1 to 0.5 µM,1 to 100 µM,1 to 100 µM,>99 % remaining after 50 min,"C=CC(=O)N1CCc2ccc(-c3c(-c4ccc(N5CCN(C(C)=O)CC5)cc4)[nH]c4nccc(Cl)c34)cc21 [Example 58, 1-(6-(2-(4-(4-acetylpiperazin-1-yl)phenyl)-4-chloro-1H-pyrrolo[2,3-b]pyridin-3-yl)indolin-1-yl)prop-2-en-1-one]"
0.1 to 0.5 µM,0.1 to 0.5 µM,0.5 to 1 µM,≤ 0.1 µM,≤ 0.1 µM,≤ 0.1 µM,0.5 to 1 µM,0.1 to 0.5 µM,>99 % remaining after 50 min,"C=CC(=O)Nc1cc(-c2c(-c3ccc(N4CCN(C)CC4)nc3)[nH]c3ncccc23)ccc1C [Example 78, N-(2-methyl-5-(2-(6-(4-methylpiperazin-1-yl)pyridin-3-yl)-1H-pyrrolo[2,3-b]pyridin-3-yl)phenyl)acrylamide 2,2,2-trifluoroacetate]"
≤ 0.1 µM,0.1 to 0.5 µM,≤ 0.1 µM,≤ 0.1 µM,≤ 0.1 µM,≤ 0.1 µM,0.1 to 0.5 µM,0.1 to 0.5 µM,>99 % remaining after 50 min,"C=CC(=O)Nc1cc(-c2c(-c3ccc(CN4CCOCC4)cc3)[nH]c3nccc(OC)c23)ccc1C [Example 75, N-(5-(4-methoxy-2-(4-(morpholinomethyl)phenyl)-1H-pyrrolo[2,3-b]pyridin-3-yl)-2-methylphenyl)acrylamide]"
≤ 0.1 µM,≤ 0.1 µM,≤ 0.1 µM,≤ 0.1 µM,≤ 0.1 µM,≤ 0.1 µM,0.1 to 0.5 µM,0.5 to 1 µM,>99 % remaining after 50 min,"C=CC(=O)Nc1cc(-c2c(-c3ccc(CN(C)C)cc3)[nH]c3nccc(Cl)c23)ccc1C [Example 10, N-(5-(4-chloro-2-(4-((dimethylamino)methyl)phenyl)-1H-pyrrolo[2,3-b]pyridin-3-yl)-2-methylphenyl)acrylamide]"
≤ 0.1 µM,0.1 to 0.5 µM,0.1 to 0.5 µM,≤ 0.1 µM,≤ 0.1 µM,≤ 0.1 µM,0.1 to 0.5 µM,0.1 to 0.5 µM,>99 % remaining after 50 min,"C=CC(=O)Nc1cc(-c2c(-c3ccc(CN4CCN(C)CC4)cc3)[nH]c3nccc(OC)c23)ccc1C [Example 77, N-(5-(4-methoxy-2-(4-((4-methylpiperazin-1-yl)methyl)phenyl)-1H-pyrrolo[2,3-b]pyridin-3-yl)-2-methylphenyl)acrylamide]"

# Continued, molecule first:
SMILES,IC50 (HER2 INS YVMA),GI50 [1],GI50 [2],IC50 (EGFR T790ML858R),IC50 (EGFR wt),IC50 (H1975),IC50 (H1781),IC50 (A431),Stability in presence of mouse liver microsomes without cofactor NADPH [% remaining after 50 min] [3]
"C=CC(=O)Nc1cc(-c2c(-c3ccc(C4CCN(C)CC4)cc3)[nH]c3nccc(OC)c23)ccc1C [Example 73, N-(5-(4-methoxy-2-(4-(1-methylpiperidin-4-yl)phenyl)-1H-pyrrolo[2,3-b]pyridin-3-yl)-2-methylphenyl)acrylamide]",≤ 0.1 µM,≤ 0.1 µM,≤ 0.1 µM,≤ 0.1 µM,≤ 0.1 µM,≤ 0.1 µM,0.1 to 0.5 µM,0.1 to 0.5 µM,99 % remaining after 50 min
"C=CC(=O)Nc1cc(-c2c(-c3ccc(OCCCN(C)C)cc3)[nH]c3nccc(Cl)c23)ccc1C [Example 13, N-(5-(4-chloro-2-(4-(3-(dimethylamino)propoxy)phenyl)-1H-pyrrolo[2,3-b]pyridin-3-yl)-2-methylphenyl)acrylamide]",≤ 0.1 µM,0.1 to 0.5 µM,0.1 to 0.5 µM,≤ 0.1 µM,≤ 0.1 µM,≤ 0.1 µM,0.1 to 0.5 µM,0.1 to 0.5 µM,95 % remaining after 50 min
"C=CC(=O)Nc1cc(-c2c(-c3ccc(CN4CCN(C)CC4)cc3)[nH]c3nccc(Cl)c23)ccc1C [Example 1, N-(5-(4-chloro-2-(4-((4-methylpiperazin-1-yl)methyl)phenyl)-1H-pyrrolo[2,3-b]pyridin-3-yl)-2-methylphenyl)acrylamide 2,2,2-trifluoroacetate]",≤ 0.1 µM,0.1 to 0.5 µM,≤ 0.1 µM,≤ 0.1 µM,≤ 0.1 µM,≤ 0.1 µM,0.1 to 0.5 µM,0.1 to 0.5 µM,>99 % remaining after 50 min
"C=CC(=O)Nc1cc(-c2c(-c3ccc(CN4CCOCC4)cc3)[nH]c3nccc(Cl)c23)ccc1C [Example 5, N-(5-(4-chloro-2-(4-(morpholinomethyl)phenyl)-1H-pyrrolo[2,3-b]pyridin-3-yl)-2-methylphenyl)acrylamide]",≤ 0.1 µM,0.1 to 0.5 µM,0.1 to 0.5 µM,≤ 0.1 µM,≤ 0.1 µM,≤ 0.1 µM,> 10 µM,> 10 µM,>99 % remaining after 50 min
"C=CC(=O)N1CCc2ccc(-c3c(-c4ccc(N5CCN(C)CC5)cc4)[nH]c4nccc(Cl)c34)cc21 [Example 56, 1-(6-(4-chloro-2-(4-(4-methylpiperazin-1-yl)phenyl)-1H-pyrrolo[2,3-b]pyridin-3-yl)indolin-1-yl)prop-2-en-1-one]",≤ 0.1 µM,0.1 to 0.5 µM,0.1 to 0.5 µM,≤ 0.1 µM,≤ 0.1 µM,≤ 0.1 µM,0.5 to 1 µM,0.5 to 1 µM,>99 % remaining after 50 min
